Some targets named below: Adenosine receptor A2a (Homo sapiens, UniProt P29274); Melanocortin receptor 3 (Homo sapiens, UniProt P41968); Motilin receptor (Homo sapiens, UniProt O43193); D(3) dopamine receptor (Homo sapiens, UniProt P35462).
For another assay, the target named is Bile salt export pump (Homo sapiens, UniProt O95342). Format: functional.
A further assay addresses T1, Adenosine receptor A1 (Homo sapiens, UniProt P30542).
T1 sequence (P30542 whole entry): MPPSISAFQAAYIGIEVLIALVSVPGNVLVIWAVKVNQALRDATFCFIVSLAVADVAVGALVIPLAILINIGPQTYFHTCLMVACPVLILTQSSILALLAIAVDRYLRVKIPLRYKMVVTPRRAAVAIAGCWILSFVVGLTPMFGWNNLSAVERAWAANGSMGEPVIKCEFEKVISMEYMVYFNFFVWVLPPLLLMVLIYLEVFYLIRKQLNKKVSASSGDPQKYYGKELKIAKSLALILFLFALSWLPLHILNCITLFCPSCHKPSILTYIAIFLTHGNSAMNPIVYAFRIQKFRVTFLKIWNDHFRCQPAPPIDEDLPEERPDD

Assay [1] addresses T2, Alpha-2A adrenergic receptor (Homo sapiens, UniProt P08913).
T2 sequence (P08913 whole entry): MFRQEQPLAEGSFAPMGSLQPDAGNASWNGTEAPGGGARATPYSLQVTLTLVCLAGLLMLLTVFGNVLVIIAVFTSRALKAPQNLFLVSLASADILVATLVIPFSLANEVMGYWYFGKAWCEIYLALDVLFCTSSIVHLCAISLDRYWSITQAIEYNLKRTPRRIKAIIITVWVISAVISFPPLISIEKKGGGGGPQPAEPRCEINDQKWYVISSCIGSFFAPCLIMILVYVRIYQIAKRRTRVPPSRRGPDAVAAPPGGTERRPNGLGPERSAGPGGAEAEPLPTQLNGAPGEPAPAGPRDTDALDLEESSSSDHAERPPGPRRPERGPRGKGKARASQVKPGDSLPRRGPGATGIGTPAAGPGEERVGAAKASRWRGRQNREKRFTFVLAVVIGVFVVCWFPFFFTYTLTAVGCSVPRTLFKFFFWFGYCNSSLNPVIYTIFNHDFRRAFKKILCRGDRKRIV
Format: functional, cell-based.

For assay [2], the target named is T2, Alpha-2A adrenergic receptor. The format is functional, cell-based. The source holds these as a separate data set.
In assay [3] the target is T3, Alpha-2C adrenergic receptor (Homo sapiens, UniProt P18825).
T3 sequence (P18825 whole entry): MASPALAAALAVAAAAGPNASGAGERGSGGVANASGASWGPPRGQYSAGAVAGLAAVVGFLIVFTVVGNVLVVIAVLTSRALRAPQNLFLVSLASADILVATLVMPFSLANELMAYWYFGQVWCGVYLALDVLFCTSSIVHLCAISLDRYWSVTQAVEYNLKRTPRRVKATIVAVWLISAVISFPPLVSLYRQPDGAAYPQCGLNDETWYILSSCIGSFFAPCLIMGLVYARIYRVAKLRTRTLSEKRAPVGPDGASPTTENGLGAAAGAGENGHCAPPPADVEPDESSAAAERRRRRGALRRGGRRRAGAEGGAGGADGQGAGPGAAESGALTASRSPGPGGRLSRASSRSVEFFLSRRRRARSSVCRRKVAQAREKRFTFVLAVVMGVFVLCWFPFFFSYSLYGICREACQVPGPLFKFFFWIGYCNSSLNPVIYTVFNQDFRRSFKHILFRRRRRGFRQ
Format: functional.

For assay [4], the target named is Beta-1 adrenergic receptor (Homo sapiens, UniProt P08588). Format: functional.
Assay [5] deals with T4, Cholecystokinin receptor type A (Homo sapiens, UniProt P32238).
T4 sequence (P32238 whole entry): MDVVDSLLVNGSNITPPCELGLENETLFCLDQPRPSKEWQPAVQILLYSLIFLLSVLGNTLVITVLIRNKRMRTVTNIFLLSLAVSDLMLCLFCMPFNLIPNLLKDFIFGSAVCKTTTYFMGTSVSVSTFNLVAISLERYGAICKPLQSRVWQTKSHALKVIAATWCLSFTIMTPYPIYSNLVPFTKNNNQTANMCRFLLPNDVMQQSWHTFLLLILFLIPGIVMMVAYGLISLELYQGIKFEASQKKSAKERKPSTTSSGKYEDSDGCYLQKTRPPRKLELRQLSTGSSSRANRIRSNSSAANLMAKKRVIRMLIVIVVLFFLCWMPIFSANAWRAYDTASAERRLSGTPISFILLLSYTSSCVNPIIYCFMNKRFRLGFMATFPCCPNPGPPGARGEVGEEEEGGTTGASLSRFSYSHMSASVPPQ

Assay [6] has as its target T5, Muscarinic acetylcholine receptor M2 (Homo sapiens, UniProt P08172).
T5 sequence (P08172 whole entry): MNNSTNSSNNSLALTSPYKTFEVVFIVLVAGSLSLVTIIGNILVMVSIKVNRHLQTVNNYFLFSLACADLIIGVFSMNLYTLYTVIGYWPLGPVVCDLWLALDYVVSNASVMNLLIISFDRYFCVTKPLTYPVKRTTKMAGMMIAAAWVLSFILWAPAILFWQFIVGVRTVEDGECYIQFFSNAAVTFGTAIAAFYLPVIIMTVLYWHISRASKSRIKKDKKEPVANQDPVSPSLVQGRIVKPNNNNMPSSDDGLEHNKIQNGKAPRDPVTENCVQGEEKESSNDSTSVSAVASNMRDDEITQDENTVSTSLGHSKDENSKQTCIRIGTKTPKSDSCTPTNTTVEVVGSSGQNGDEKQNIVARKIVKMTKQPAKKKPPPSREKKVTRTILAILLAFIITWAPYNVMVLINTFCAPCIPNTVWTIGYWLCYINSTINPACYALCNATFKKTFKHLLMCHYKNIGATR
The format is functional, cell-based.

Assay [7] concerns the target Neuronal acetylcholine receptor subunit alpha-4 (Homo sapiens, UniProt P43681).
The target of assay [8] is 5-hydroxytryptamine receptor 2B (Homo sapiens, UniProt P41595). Format: functional, cell-based.
5-hydroxytryptamine receptor 2B, sequence (P41595 whole entry): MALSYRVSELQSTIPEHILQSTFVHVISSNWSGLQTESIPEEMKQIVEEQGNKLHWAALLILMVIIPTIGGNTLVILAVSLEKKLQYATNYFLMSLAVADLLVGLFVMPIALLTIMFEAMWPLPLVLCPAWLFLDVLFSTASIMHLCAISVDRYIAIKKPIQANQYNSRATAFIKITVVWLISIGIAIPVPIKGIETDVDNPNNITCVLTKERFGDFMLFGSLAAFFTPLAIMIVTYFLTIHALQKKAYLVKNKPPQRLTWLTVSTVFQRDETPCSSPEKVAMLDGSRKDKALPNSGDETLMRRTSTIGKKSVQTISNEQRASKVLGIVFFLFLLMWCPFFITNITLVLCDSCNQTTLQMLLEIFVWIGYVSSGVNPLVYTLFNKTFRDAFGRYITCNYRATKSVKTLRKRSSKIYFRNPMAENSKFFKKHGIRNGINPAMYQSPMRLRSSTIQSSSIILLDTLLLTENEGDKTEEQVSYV
In assay [9] the target is Voltage-gated inwardly rectifying potassium channel KCNH2 (Homo sapiens, UniProt Q12809). Format: functional. Particulars: read-out: AC50.
Voltage-gated inwardly rectifying potassium channel KCNH2, sequence (Q12809 whole entry): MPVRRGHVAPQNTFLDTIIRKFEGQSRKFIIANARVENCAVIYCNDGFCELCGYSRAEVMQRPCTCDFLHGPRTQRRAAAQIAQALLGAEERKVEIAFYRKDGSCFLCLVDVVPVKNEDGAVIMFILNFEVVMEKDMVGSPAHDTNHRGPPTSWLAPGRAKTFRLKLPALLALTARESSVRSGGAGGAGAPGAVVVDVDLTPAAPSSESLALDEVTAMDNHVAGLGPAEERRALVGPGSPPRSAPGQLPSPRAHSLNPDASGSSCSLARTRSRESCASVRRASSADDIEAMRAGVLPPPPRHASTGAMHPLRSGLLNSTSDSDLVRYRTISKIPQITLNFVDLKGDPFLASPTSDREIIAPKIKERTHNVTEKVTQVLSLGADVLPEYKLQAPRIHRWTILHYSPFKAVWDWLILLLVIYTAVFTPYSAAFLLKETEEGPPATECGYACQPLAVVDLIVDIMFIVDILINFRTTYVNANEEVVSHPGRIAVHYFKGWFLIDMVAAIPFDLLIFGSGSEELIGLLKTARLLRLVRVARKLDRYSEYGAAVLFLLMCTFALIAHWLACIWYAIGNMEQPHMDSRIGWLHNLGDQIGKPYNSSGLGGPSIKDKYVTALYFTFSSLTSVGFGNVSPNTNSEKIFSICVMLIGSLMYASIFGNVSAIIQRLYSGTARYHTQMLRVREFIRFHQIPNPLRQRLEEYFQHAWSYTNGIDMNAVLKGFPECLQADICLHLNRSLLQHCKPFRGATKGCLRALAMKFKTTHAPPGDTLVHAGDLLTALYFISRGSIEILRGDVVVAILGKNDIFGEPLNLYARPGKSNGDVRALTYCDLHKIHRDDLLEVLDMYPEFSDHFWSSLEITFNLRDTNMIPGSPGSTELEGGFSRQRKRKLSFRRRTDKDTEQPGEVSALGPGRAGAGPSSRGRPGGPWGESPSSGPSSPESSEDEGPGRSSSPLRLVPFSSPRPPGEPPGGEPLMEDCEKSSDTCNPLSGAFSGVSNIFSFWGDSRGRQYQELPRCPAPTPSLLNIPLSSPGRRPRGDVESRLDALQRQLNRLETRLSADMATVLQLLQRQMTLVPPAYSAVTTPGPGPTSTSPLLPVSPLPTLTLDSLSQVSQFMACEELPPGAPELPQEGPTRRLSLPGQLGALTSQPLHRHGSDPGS
For assay [10], the target named is Sodium-dependent dopamine transporter (Homo sapiens, UniProt Q01959).
Sodium-dependent dopamine transporter, sequence (Q01959 whole entry): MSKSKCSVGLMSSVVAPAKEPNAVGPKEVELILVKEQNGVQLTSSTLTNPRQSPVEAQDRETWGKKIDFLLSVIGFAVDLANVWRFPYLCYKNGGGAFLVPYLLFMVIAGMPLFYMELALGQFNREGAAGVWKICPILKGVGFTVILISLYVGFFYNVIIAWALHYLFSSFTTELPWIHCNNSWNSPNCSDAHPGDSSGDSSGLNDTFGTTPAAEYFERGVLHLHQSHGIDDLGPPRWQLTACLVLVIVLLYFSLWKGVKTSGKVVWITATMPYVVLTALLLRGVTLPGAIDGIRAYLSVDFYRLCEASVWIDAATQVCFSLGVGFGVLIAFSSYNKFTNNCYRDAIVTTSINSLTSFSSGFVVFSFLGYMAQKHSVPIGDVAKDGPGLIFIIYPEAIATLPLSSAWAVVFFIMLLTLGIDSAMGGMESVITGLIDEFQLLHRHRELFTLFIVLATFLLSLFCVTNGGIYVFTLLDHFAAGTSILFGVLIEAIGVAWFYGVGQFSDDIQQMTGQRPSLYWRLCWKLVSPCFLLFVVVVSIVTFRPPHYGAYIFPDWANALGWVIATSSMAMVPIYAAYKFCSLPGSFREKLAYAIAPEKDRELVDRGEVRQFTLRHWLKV
Assay [11] deals with Sodium-dependent noradrenaline transporter (Homo sapiens, UniProt P23975).
Sodium-dependent noradrenaline transporter, sequence (P23975 whole entry): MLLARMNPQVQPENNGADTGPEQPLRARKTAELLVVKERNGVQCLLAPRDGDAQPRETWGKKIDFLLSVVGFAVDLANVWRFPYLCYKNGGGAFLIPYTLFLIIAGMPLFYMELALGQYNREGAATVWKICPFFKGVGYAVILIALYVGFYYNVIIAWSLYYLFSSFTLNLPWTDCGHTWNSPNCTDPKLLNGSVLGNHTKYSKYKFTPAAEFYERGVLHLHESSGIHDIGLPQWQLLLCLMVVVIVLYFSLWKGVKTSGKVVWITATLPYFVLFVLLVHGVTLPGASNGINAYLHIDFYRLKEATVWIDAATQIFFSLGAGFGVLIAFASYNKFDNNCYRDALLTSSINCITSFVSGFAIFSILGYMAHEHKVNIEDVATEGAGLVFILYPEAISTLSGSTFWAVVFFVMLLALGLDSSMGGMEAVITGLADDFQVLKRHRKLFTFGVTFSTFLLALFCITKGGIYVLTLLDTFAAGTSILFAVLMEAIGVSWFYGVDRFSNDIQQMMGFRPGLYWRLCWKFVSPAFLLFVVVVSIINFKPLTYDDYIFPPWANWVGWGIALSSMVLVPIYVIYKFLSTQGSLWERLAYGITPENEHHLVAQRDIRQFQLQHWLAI

Our source for the AC50 values is ChEMBL document CHEMBL5291721, “A preclinical secondary pharmacology resource illuminates target-adverse drug reaction associations of marketed drugs” (Nat Commun, 2023).

As usually defined, the AC50 is the concentration at which the activity in the assay is half-maximal.
Also: assay procedure not described here.

Melanocortin receptor 3, sequence (P41968 whole entry): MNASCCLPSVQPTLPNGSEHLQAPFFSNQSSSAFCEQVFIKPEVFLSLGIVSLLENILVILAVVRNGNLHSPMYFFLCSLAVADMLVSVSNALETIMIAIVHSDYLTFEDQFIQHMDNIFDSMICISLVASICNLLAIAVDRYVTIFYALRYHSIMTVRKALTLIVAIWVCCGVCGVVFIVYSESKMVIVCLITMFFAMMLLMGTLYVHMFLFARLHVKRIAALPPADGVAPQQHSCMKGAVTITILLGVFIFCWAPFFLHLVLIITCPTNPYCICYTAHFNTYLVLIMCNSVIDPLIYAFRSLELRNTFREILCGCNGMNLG
Adenosine receptor A2a, sequence (P29274 whole entry): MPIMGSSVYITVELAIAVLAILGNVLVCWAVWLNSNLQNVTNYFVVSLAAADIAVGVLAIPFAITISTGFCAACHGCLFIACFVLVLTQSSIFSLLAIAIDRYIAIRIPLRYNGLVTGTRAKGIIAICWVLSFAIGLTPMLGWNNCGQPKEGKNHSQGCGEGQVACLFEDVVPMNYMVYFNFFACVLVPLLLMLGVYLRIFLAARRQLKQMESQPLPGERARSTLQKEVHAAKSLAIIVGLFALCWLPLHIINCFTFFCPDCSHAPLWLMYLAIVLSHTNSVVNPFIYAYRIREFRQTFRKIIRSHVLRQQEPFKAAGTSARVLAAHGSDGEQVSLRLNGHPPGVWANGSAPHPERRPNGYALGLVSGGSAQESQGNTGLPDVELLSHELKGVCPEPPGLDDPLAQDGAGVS
Bile salt export pump, sequence (O95342 whole entry): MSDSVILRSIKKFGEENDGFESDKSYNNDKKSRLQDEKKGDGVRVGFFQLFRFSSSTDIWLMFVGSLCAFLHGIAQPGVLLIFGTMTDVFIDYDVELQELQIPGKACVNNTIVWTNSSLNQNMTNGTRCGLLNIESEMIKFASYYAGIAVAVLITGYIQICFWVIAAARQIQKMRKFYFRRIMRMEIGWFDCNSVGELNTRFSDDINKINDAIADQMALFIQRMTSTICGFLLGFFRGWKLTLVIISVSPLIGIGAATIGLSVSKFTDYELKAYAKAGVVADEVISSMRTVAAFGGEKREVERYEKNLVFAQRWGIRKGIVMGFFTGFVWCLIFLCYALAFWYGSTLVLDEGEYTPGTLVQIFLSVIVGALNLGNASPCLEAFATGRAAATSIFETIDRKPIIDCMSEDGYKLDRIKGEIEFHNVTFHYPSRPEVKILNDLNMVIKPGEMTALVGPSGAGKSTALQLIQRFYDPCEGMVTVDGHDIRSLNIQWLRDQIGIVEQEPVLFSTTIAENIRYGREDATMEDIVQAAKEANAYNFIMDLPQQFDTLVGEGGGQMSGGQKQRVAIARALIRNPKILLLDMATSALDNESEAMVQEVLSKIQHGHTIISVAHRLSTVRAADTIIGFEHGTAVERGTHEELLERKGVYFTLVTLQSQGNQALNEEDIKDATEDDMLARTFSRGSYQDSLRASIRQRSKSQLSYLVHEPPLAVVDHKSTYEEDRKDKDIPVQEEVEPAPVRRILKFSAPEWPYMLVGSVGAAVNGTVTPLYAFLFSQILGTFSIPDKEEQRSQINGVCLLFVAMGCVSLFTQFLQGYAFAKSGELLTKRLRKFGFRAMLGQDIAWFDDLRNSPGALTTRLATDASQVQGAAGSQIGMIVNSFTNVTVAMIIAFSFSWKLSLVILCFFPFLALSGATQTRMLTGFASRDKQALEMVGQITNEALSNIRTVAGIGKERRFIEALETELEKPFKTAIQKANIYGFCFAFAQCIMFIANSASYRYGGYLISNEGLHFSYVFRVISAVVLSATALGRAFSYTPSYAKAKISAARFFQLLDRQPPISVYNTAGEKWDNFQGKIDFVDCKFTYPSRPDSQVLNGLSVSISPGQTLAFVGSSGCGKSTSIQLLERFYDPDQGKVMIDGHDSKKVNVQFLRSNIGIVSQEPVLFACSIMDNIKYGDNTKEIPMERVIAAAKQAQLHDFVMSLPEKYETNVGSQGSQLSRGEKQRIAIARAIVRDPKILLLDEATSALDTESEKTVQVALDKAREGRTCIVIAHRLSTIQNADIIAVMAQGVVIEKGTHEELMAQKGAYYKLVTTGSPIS

On to `CNC(=O)c1ccccc1Sc1ccc2c(/C=C/c3ccccn3)n[nH]c2c1` [AXITINIB], for which the AC50 on Bile salt export pump was 5.4 µM; at Adenosine receptor A1, greater than 30 µM; at Adenosine receptor A2a it was greater than 30 µM; in [1], greater than 30 µM; in assay [2], greater than 30 µM; in assay [3], greater than 30 µM. Also, the half-maximal activity concentration (AC50) in assay [4], in [5], in [6], in assay [7], in assay [8] and in [9] was greater than 30 µM in each case. The AC50 is greater than 30 µM on Melanocortin receptor 3; greater than 30 µM at Motilin receptor; 0.07 µM in assay [10]; greater than 30 µM in [11]; greater than 30 µM at D(3) dopamine receptor.
As to `O=P1(NCCCl)OCCCN1CCCl` (stereo unspecified) [IFOSFAMIDE], the concentration at half-maximal activity (AC50) is greater than 300 µM at Bile salt export pump; greater than 30 µM at Adenosine receptor A1; greater than 30 µM at Adenosine receptor A2a; greater than 30 µM in [1]; greater than 30 µM in assay [2]; greater than 30 µM in [3]. Besides, the half-maximal activity concentration (AC50) in [4], in [5], in assay [6], in assay [7], in assay [8] and in assay [9] was greater than 30 µM each time. In addition, the AC50 (at Melanocortin receptor 3; on Motilin receptor; in [10]; in assay [11]; on D(3) dopamine receptor) was greater than 30 µM throughout.
`NCC(CC(=O)O)c1ccc(Cl)cc1` (stereo unspecified) [BACLOFEN]: the concentration at half-maximal activity (AC50) on Bile salt export pump is greater than 300 µM; on Adenosine receptor A1, greater than 30 µM; at Adenosine receptor A2a, greater than 30 µM; in assay [1], greater than 30 µM; in [2], greater than 30 µM; in [3] it was greater than 30 µM. Moreover, the concentration at half-maximal activity (AC50) in assay [4], in assay [5], in assay [6], in [7], in [8] and in [9] was greater than 30 µM throughout. Also, the AC50 (on Melanocortin receptor 3; at Motilin receptor; in [10]; in [11]; on D(3) dopamine receptor) was greater than 30 µM each time.
As for `Nc1nc(NC2CC2)c2ncn([C@H]3C=C[C@@H](CO)C3)c2n1` [ABACAVIR], the AC50 at Bile salt export pump is greater than 300 µM; on Adenosine receptor A1 it was greater than 30 µM; on Adenosine receptor A2a, greater than 30 µM; in assay [1], greater than 30 µM; in assay [2], greater than 30 µM; in assay [3] it was greater than 30 µM. Moreover, the concentration at half-maximal activity (AC50) in [4], in [5], in [6], in assay [7], in assay [8] and in [9] was greater than 30 µM throughout. For the same compound, the AC50 (at Melanocortin receptor 3; on Motilin receptor; in [10]; in assay [11]; at D(3) dopamine receptor) was greater than 30 µM in each case.
With `CCCSc1ccc2nc(NC(=O)OC)[nH]c2c1` [ALBENDAZOLE], the AC50 on Bile salt export pump is greater than 300 µM; on Adenosine receptor A1, greater than 10 µM; on Adenosine receptor A2a, greater than 30 µM; in assay [1], greater than 10 µM; in assay [2], greater than 10 µM; in assay [3], greater than 10 µM. For the same compound, the concentration at half-maximal activity (AC50) in [4] is greater than 10 µM; in [5], greater than 10 µM; in assay [6] it was greater than 10 µM; in [7], greater than 10 µM; in assay [8], greater than 10 µM; in assay [9] it was 10.4 µM. For the same compound, the concentration at half-maximal activity (AC50) at Melanocortin receptor 3 is greater than 30 µM; on Motilin receptor, greater than 10 µM; in [10] it was greater than 30 µM; in [11], greater than 30 µM; at D(3) dopamine receptor, greater than 30 µM.
As for `CNC1Cc2ccccc2N(C)c2ccccc21` (stereo unspecified) [METAPRAMINE], the AC50 at Bile salt export pump is greater than 300 µM; at Adenosine receptor A1 it was greater than 30 µM; on Adenosine receptor A2a, greater than 30 µM; in assay [1], greater than 30 µM; in assay [2], 3.2 µM; in assay [3] it was 26 µM. The AC50 was greater than 30 µM in [4]; greater than 30 µM in [5]; greater than 30 µM in [6]; greater than 30 µM in assay [7]; 0.95 µM in assay [8]; 5.9 µM in assay [9]. Also, the concentration at half-maximal activity (AC50) at Melanocortin receptor 3 was greater than 30 µM; at Motilin receptor, greater than 30 µM; in assay [10], greater than 30 µM; in assay [11] it was 16 µM; at D(3) dopamine receptor it was greater than 30 µM.
`CCC(C)n1ncn(-c2ccc(N3CCN(c4ccc(OCC5COC(Cn6cncn6)(c6ccc(Cl)cc6Cl)O5)cc4)CC3)cc2)c1=O` (stereo unspecified) [ITRACONAZOLE]: the AC50 is 0.66 µM on Bile salt export pump; greater than 30 µM on Adenosine receptor A1; greater than 30 µM at Adenosine receptor A2a; greater than 30 µM in assay [1]; greater than 30 µM in assay [2]; greater than 30 µM in [3]. Further, the AC50 in [4], in assay [5], in assay [6], in assay [7], in assay [8] and in assay [9] was greater than 30 µM in each case. The concentration at half-maximal activity (AC50) (on Melanocortin receptor 3; on Motilin receptor; in [10]; in assay [11]; at D(3) dopamine receptor) was greater than 30 µM each time.
On to `Cc1cn([C@H]2C[C@H](N=[N+]=[N-])[C@@H](CO)O2)c(=O)[nH]c1=O` [ZIDOVUDINE], for which the AC50 is greater than 300 µM on Bile salt export pump; greater than 30 µM at Adenosine receptor A1; greater than 30 µM on Adenosine receptor A2a; greater than 10 µM in assay [1]; greater than 10 µM in assay [2]; greater than 10 µM in [3]. Also, the AC50 in assay [4] was greater than 10 µM; in assay [5], greater than 30 µM; in assay [6], greater than 10 µM; in assay [7], greater than 10 µM; in assay [8] it was greater than 10 µM; in [9], greater than 30 µM. Further, the half-maximal activity concentration (AC50) on Melanocortin receptor 3 was greater than 30 µM; on Motilin receptor, greater than 10 µM; in assay [10], greater than 10 µM; in assay [11], greater than 10 µM; at D(3) dopamine receptor, greater than 10 µM.
